Data reported in patent US11903951B2, “Nasal pharmaceutical compositions with a porous excipient” (M et P Pharma AG, priority 2016, dated 2024).

Assays:
[1] = Solubility of testosterone in different oils; type: physicochemical
[2] = Time for complete dissolving of the maximally soluble amount of testosterone in different oils; details: vortex mixer and shaker at 1000 rpm
Experimental: The adsorption ability of the SYLOID® particles was investigated by mixing SYLOID® 244FP, XDP3050, and XDP6035 with castor oil, linalool, TRANSCUTOL®, and CAPRYOL™. The maximally soluble amount of testosterone (under the conditions tested) was dissolved in 2.5 g of each oil using a vortex mixer and shaker at 1000 rpm.

SMILES: C[C@]12CC[C@H]3[C@@H](CCC4=CC(=O)CC[C@@]43C)[C@@H]1CC[C@@H]2O [testosterone]
- Solubility from oil ([1]; CAPRYOL PGMC): 6.0%
- Solubility from oil ([1]; TRANSCUTOL HP): 6.5%
- Solubility from oil ([1]; linalool): 12.5%
- Time of solubility (complete dissolving) ([2]; 0.10 g testosterone in 2.5 g castor oil): >300 min
- Time of solubility (complete dissolving) ([2]; 0.15 g testosterone in 2.5 g CAPRYOL): ~60 min
- Time of solubility (complete dissolving) ([2]; 0.16 g testosterone in 2.5 g TRANSCUTOL): ~5 min
- Time of solubility (complete dissolving) ([2]; 0.31 g testosterone in 2.5 g linalool): 15 to 20 min
